One compound from ChEMBL document CHEMBL1944561, “Discovery and SAR exploration of a novel series of imidazo[4,5-b]pyrazin-2-ones as potent and selective mTOR kinase inhibitors” (Bioorg Med Chem Lett, 2011) can be followed below.

In experiment [1] the target is Macrophage-stimulating protein receptor (Homo sapiens) (UniProt Q04912). Kind of experiment: Inhibition of Ron assessed as activity remaining at 10 uM.
Experiment [2] has as its target Serine/threonine-protein kinase mTOR (Homo sapiens, UniProt P42345). Kind of experiment: Inhibition of mTOR assessed as activity remaining at 10 uM.
Experiment [3] addresses Tyrosine-protein kinase Lyn (Homo sapiens) (UniProt P07948). Kind of experiment: Inhibition of LYN-A assessed as activity remaining at 10 uM.
Experiment [4] deals with MAP kinase-activated protein kinase 3 (Homo sapiens) (UniProt Q16644). Kind of experiment: Inhibition of MAPKAP-K3 assessed as activity remaining at 10 uM.
The target of experiment [5] is Tyrosine-protein kinase JAK2 (Homo sapiens) (UniProt O60674). Kind of experiment: Inhibition of JAK2 assessed as activity remaining at 10 uM.
Tyrosine-protein kinase JAK2 (Homo sapiens), sequence (O60674 whole entry): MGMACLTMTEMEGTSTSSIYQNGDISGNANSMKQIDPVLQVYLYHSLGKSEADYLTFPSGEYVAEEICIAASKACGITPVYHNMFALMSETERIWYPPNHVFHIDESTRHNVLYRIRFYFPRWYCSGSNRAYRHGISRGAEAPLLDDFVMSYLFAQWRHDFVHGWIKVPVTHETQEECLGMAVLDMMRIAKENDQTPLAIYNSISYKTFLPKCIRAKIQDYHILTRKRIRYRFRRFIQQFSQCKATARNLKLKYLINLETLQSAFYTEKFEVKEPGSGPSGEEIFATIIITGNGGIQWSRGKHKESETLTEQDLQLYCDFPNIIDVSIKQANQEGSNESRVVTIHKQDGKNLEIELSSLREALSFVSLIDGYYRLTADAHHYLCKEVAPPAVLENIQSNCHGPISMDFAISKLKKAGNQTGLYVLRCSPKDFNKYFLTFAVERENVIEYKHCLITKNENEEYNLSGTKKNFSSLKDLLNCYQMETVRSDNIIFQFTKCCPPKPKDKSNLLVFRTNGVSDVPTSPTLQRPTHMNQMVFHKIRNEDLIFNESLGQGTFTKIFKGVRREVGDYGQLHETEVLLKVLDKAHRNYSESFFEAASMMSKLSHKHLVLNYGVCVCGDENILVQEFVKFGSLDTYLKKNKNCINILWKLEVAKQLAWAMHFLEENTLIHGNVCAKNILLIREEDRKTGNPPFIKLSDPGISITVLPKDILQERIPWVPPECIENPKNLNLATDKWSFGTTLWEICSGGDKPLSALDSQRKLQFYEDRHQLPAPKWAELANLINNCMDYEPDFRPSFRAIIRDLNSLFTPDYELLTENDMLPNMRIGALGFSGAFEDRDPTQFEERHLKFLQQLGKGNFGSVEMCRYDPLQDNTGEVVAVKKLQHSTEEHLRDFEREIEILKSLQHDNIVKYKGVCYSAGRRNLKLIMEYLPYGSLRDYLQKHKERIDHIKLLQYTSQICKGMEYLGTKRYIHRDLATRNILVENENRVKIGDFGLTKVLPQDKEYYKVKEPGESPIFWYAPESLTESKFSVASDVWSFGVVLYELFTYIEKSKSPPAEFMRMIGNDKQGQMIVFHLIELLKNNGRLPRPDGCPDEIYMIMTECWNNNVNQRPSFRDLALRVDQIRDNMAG

MAP kinase-activated protein kinase 3 (Homo sapiens), sequence (Q16644 whole entry, looked up): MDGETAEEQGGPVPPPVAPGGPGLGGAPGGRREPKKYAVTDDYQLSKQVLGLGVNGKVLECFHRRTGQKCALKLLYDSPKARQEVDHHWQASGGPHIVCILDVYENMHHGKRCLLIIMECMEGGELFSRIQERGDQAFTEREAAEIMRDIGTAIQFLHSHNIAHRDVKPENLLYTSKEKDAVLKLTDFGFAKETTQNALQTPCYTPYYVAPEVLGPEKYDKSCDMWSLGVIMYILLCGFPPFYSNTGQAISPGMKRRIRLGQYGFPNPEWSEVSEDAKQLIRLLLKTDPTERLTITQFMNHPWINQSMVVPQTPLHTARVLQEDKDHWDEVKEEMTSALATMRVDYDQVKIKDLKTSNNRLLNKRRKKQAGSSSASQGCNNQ
Macrophage-stimulating protein receptor (Homo sapiens), sequence (Q04912 25-304 limits assumed): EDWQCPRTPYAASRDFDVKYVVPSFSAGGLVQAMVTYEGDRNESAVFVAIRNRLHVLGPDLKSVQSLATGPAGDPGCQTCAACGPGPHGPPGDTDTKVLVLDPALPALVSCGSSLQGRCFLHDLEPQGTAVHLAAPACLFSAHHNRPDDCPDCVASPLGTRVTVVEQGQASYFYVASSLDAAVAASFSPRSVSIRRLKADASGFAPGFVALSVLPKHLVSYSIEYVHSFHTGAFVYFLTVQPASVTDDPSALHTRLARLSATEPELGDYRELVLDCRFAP
Macrophage-stimulating protein receptor (Homo sapiens), sequence (Q04912 310-1400 limits assumed): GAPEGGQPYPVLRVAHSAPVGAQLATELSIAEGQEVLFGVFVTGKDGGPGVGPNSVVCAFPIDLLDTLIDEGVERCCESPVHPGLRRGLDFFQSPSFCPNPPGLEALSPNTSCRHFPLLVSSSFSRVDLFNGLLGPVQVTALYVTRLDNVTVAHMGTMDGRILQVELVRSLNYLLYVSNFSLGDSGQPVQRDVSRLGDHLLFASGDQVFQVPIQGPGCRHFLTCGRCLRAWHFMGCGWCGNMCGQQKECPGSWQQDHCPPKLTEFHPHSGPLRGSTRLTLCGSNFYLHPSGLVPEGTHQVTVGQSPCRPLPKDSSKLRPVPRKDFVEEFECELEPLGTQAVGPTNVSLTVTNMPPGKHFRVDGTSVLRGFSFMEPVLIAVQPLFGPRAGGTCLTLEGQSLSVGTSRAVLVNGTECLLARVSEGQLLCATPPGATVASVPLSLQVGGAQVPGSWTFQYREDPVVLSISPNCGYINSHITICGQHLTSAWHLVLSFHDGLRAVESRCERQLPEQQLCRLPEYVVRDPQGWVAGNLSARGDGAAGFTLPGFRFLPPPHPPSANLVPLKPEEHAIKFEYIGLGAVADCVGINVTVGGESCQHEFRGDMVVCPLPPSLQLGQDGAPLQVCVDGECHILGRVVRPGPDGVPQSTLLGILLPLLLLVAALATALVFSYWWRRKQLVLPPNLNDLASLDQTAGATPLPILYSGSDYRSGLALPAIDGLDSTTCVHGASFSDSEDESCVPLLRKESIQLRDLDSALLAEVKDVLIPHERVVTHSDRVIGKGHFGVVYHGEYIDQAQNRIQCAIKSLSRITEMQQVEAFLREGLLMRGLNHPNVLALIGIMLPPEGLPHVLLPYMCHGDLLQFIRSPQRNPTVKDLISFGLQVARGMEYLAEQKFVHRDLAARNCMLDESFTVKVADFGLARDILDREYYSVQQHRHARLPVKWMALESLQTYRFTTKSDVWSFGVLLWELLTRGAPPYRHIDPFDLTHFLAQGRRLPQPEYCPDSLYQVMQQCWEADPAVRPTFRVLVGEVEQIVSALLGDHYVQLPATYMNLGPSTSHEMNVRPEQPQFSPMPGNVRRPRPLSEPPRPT
Tyrosine-protein kinase Lyn (Homo sapiens), sequence (P07948 2-512 limits assumed): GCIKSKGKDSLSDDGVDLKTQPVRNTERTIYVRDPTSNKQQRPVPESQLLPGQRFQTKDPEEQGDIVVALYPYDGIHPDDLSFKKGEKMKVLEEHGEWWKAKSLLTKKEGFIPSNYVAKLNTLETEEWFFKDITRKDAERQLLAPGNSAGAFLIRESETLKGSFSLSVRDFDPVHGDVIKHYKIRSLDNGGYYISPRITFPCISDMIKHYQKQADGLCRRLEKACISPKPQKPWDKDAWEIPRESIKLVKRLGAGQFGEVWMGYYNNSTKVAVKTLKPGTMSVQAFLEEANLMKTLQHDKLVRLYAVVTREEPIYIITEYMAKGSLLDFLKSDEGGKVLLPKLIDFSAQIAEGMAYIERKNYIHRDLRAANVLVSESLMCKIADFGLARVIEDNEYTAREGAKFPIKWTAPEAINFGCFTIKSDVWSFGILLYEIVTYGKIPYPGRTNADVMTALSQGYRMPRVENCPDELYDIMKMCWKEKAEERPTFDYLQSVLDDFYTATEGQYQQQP

Regarding `O=c1[nH]c2ncc(-c3ccc(-c4nc[nH]n4)cc3)nc2n1CC1CCOCC1`, the Activity came out at 95% in experiment [1]; 0% in experiment [2]; 96% in experiment [3]; 94% in experiment [4]; 98% in experiment [5].
